This passage reports IC50, Activity and inhibition results from ChEMBL document CHEMBL3804780, “Protective effect of novel substituted nicotine hydrazide analogues against hypoxic brain injury in neonatal rats via inhibition of caspase” (Bioorg Med Chem Lett, 2016).

The target in assay [1] is T1, Caspase-3 (Homo sapiens, UniProt P42574).
T1 sequence (P42574 whole entry): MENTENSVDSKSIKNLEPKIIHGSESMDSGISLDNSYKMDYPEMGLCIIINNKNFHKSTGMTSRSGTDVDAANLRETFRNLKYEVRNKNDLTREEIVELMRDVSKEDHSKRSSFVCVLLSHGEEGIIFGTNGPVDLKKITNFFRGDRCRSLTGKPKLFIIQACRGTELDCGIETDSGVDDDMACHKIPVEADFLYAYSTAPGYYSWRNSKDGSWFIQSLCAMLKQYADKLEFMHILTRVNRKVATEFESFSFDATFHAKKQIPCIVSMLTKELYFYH
The experiment in a line: Inhibition of His-tagged human recombinant caspase 3 expressed in Escherichia coli using acetyl-Asp-Glu-Val-Asp-7- amido-4-methylcoumarin (Ac-DEVD-AMC) as substrate by fluorimetric assay.

Assay [2] deals with T2, Caspase-7 (Homo sapiens, UniProt P55210).
T2 sequence (P55210 whole entry): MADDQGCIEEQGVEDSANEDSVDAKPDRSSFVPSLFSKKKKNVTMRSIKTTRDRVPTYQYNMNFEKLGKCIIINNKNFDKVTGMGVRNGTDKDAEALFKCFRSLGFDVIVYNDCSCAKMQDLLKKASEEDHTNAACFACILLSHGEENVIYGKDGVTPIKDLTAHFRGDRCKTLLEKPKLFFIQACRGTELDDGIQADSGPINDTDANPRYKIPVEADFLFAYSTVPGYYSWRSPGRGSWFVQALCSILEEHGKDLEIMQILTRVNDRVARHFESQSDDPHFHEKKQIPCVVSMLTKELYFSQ
The assay can be described thus: Inhibition of His-tagged human recombinant caspase 7 expressed in Escherichia coli using acetyl-Asp-Glu-Val-Asp-7- amido-4-methylcoumarin (Ac-DEVD-AMC) as substrate by fluorimetric assay.

The subject of assay [3] is Rattus norvegicus. The assay can be described thus: Neuroprotective activity in hypoxic-ischemia-induced neonatal Sprague-Dawley rat brain assessed as reduction brain infarction at 10 mg/kg, ip administered 15 mins prior to examination by microscopic analysis. In kind it is functional, organism-based.
In assay [4] the test system is Rattus norvegicus. The assay can be described thus: Neuroprotective activity in hypoxic-ischemia-induced neonatal Sprague-Dawley rat brain assessed as reduction brain infarction at 20 mg/kg, ip administered 15 mins prior to examination by microscopic analysis. The format is functional, organism-based.
Assay [5] concerns Rattus norvegicus. The assay can be described thus: Neuroprotective activity in hypoxic-ischemic-induced neonatal Sprague-Dawley rat brain assessed as reduction brain infarction at 30 mg/kg, ip administered 15 mins prior to examination by microscopic analysis. The format is functional, organism-based.
In assay [6] the test system is Rattus norvegicus. The assay can be described thus: Neuroprotective activity in hypoxic-ischemic neonatal Sprague-Dawley rat brain assessed as distribution of neurons in cortex at 30 mg/kg, ip administered 15 mins prior to examination measured after 48 hrs by hematoxylin/eosin staining based microscopic analysis. In kind it is functional, organism-based.
The test system of assay [7] is Rattus norvegicus. The assay can be described thus: Neuroprotective activity in hypoxic-ischemic Sprague-Dawley rat brain assessed as regular shape of nucleus at 30 mg/kg, ip administered 15 mins prior to examination measured after 48 hrs by transmission electron microscopic analysis. In kind it is functional, organism-based.
The test system of assay [8] is Rattus norvegicus. The assay can be described thus: Neuroprotective activity in hypoxic-ischemic Sprague-Dawley rat brain assessed as reduction in disruption of cell organelles at 30 mg/kg, ip administered 15 mins prior to examination measured after 48 hrs by transmission electron microscopic analysis. The format is functional, organism-based.
Assay [9] relates to Rattus norvegicus. The experiment in a line: Neuroprotective activity in hypoxic-ischemic ip dosed neonatal Sprague-Dawley rat brain assessed as decrease in MDA levels administered 15 mins prior to examination measured after 48 hrs by thiobarbituric acid method. The format is functional, organism-based.
Assay [10] has as its system Rattus norvegicus. The assay can be described thus: Neuroprotective activity in hypoxic-ischemic ip dosed neonatal Sprague-Dawley rat brain assessed as increase in SOD levels administered 15 mins prior to examination measured after 48 hrs by microplate reader based method. The format is functional, organism-based.
Assay [11] deals with Rattus norvegicus. The assay can be described thus: Neuroprotective activity in hypoxic-ischemic ip dosed neonatal Sprague-Dawley rat brain assessed as increase in GSH-Px levels administered 15 mins prior to examination measured after 48 hrs by microplate reader based method. The format is functional, organism-based.
The subject of assay [12] is Rattus norvegicus. The experiment in a line: Neuroprotective activity in hypoxic-ischemic ip dosed neonatal Sprague-Dawley rat brain assessed as increase in CAT levels administered 15 mins prior to examination measured after 48 hrs by microplate reader based method. The format is functional, organism-based.
Assay [13] concerns Rattus norvegicus. The assay can be described thus: Neuroprotective activity in hypoxic-ischemic ip dosed neonatal Sprague-Dawley rat brain assessed as increase in T-AOC levels administered 15 mins prior to examination measured after 48 hrs by microplate reader based method. The format is functional, organism-based.
In assay [14] the test system is Rattus norvegicus. The assay can be described thus: Neuroprotective activity in hypoxic-ischemic neonatal Sprague-Dawley rat brain assessed as reduction in interstitial edema at 30 mg/kg, ip administered 15 mins prior to examination measured after 48 hrs by hematoxylin/eosin staining based microscopic analysis. In kind it is functional, organism-based.
For assay [15], the species on record is Rattus norvegicus. The following applies: Sprague-Dawley, Brain, 30 mg/kg.
Description: Neuroprotective activity in hypoxic-ischemic neonatal Sprague-Dawley rat brain assessed as inhibition of elevated caspase 3 expression levels at 30 mg/kg, ip administered 15 mins prior to examination measured after 48 hrs by Western blot analysis

Calls of active or inactive are those of the source. The calls are words filed in the database; no cut-off is given here.

One may read the IC50 as the concentration that inhibits the measured activity by half. With `Cc1ccccc1-c1ccc(C(=O)N/N=C2\C(=O)N(C)c3ccccc32)c(C)n1`, in [1], the IC50 was 351 µM.
Take `COc1cccc(-c2ccc(C(=O)N/N=C3\C(=O)N(C)c4ccccc43)c(C)n2)c1`: the IC50 was over 200 µM in assay [2] and 547 µM in assay [1].
As for `Cc1nc(-c2ccccc2[N+](=O)[O-])ccc1C(=O)N/N=C1\C(=O)N(C)c2ccccc21`, the IC50 was over 200 µM in assay [2] and 297 µM in [1].
In the case of `CC(=O)N[C@@H](CC(=O)O)C(=O)N[C@@H](CCC(=O)O)C(=O)N[C@H](C(=O)N[C@H](C=O)CC(=O)O)C(C)C`, the half-inhibitory concentration (IC50) in assay [2] is 0.0604 µM.
In the case of `Cc1nc(-c2ccc(Br)cc2)ccc1C(=O)N/N=C1\C(=O)N(C)c2ccccc21`, the IC50 in [1] is 122 µM.
Still for that read-out and setting: the value for `Cc1nc(-c2cccc([N+](=O)[O-])c2)ccc1C(=O)N/N=C1\C(=O)N(C)c2ccccc21` was 278 µM; that for `Cc1nc(-c2ccc([N+](=O)[O-])cc2)ccc1C(=O)N/N=C1\C(=O)N(C)c2ccccc21` was 202 µM; that for `Cc1ccc(-c2ccc(C(=O)N/N=C3\C(=O)N(C)c4ccccc43)c(C)n2)cc1` was 375 µM.
The same measure, in the same setting: the value for `Cc1nc(-c2ccccc2Br)ccc1C(=O)N/N=C1\C(=O)N(C)c2ccccc21` was 132 µM; that for `COc1cc(-c2ccc(C(=O)N/N=C3\C(=O)N(C)c4ccccc43)c(C)n2)cc(OC)c1OC` was 674 µM.
On the same count and under the same terms, the value for `Cc1nc(-c2cccc(Br)c2)ccc1C(=O)N/N=C1\C(=O)N(C)c2ccccc21` was 130 µM.
For `COc1ccc(-c2ccc(C(=O)N/N=C3\C(=O)N(C)c4ccccc43)c(C)n2)cc1OC`, the IC50 in assay [2] is over 200 µM; in assay [1], 599 µM.
The corresponding values for `COc1ccc(-c2ccc(C(=O)N/N=C3\C(=O)N(C)c4ccccc43)c(C)n2)cc1` are over 200 µM and 487 µM.
For `COc1ccccc1-c1ccc(C(=O)N/N=C2\C(=O)N(C)c3ccccc32)c(C)n1`, in that order: over 200 µM and 552 µM.
As for `Cc1nc(-c2ccccc2)ccc1C(=O)N/N=C1\C(=O)N(C)c2ccccc21`, the IC50 in assay [1] worked out at 456 µM.
For `Cc1nc(-c2cccc(Cl)c2)ccc1C(=O)N/N=C1\C(=O)N(C)c2ccccc21`, the IC50 in assay [2] was over 200 µM.
With `Cc1cccc(-c2ccc(C(=O)N/N=C3\C(=O)N(C)c4ccccc43)c(C)n2)c1`, the IC50 in assay [1] was determined as 310 µM.
`Cc1nc(-c2ccc(F)cc2)ccc1C(=O)N/N=C1\C(=O)N(C)c2ccccc21`: the outcome in assay [3], in assay [4], in assay [5], in assay [6], in assay [7] and in [8] was Active. The outcome in assay [9] and in [14] was Active. Further, the IC50 in assay [2] was over 200 µM. The Activity entry in assay [10], in assay [11], in assay [12] and in [13] was “Dose-dependent effect” in each case. Also, the inhibition result in assay [15] is “Active”.
